Values of other authors, collected in US6872562B2, “Herbicide resistant dinitrogen fixing bacteria and method of use” (priority 2001, dated 2005).

Test system: soybean
Settings: in vivo; cited from earlier work

CCCN(CCC)c1c([N+](=O)[O-])cc(C(F)(F)F)cc1[N+](=O)[O-] [Trifuralin]
Effect on nodulation and N2 fixation: decreases nodulation and N2 fixation
